The values below come from ChEMBL document CHEMBL1146031, “N-acylated sulfonamide sodium salt: a prodrug of choice for the bifunctional 2-hydroxymethyl-4-(5-phenyl-3-trifluoromethyl-pyrazol-1-yl) benzenesulfonamide class of COX-2 inhibitors” (Bioorg Med Chem Lett, 2006).

Molecules are shown by their SMILES. Calls of active or inactive are those of the source. No cut-off for these calls is given here.

As a reminder, the inhibition is the share of the control response that was lost under treatment. As a reminder, the Inhibition is the relative decrease from the control value, in per cent.

Test [1] deals with T1, Prostaglandin G/H synthase 2 (Homo sapiens) (UniProt P35354).
T1 sequence (whole entry): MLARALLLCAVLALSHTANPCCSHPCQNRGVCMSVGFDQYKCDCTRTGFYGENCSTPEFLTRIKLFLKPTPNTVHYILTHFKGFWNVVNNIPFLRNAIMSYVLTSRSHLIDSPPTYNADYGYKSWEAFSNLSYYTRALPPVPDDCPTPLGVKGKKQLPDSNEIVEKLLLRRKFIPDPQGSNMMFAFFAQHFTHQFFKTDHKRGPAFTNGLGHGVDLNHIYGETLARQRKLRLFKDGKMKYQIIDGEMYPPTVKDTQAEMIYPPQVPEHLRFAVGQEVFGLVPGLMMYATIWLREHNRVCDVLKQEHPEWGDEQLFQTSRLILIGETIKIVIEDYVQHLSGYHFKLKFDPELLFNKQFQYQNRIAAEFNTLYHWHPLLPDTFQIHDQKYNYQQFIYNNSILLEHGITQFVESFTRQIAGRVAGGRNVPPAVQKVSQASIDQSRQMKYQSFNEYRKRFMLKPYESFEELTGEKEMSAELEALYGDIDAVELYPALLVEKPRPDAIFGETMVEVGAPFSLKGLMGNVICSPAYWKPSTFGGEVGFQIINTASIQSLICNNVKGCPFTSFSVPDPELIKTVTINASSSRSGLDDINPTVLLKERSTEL
Description: Inhibition of human recombinant COX2 expressed in sf9 cells infected with baculovirus at 10 uM.

For test [2], the system named is Rattus norvegicus. In words: Anti-inflammatory activity in orally dosed Wistar rat assessed as reduction of carrageenan-induced paw edema. The settings on record: po, 30 mg/kg. Format: functional. (The carrageenan paw model is a standard test of acute inflammation.)
The subject of test [3] is Rattus norvegicus. In words: Anti-inflammatory activity in orally dosed Wistar rat assessed as reduction of carrageenan-induced paw edema at 1 mg/kg, po. Format: functional, organism-based. Details: dose 1 mg/kg.
For test [4], the system named is Rattus norvegicus. Description: Anti-inflammatory activity in orally dosed Wistar rat assessed as reduction of carrageenan-induced paw edema at 3 mg/kg, po. Format: functional, organism-based. Details: dose 3 mg/kg.
The subject of test [5] is Rattus norvegicus. In words: Anti-inflammatory activity in orally dosed Wistar rat assessed as reduction of carrageenan-induced paw edema at 10 mg/kg, po. Format: functional, organism-based. Details: dose 10 mg/kg.
Test [6] has as its target Prostaglandin G/H synthase 1 (Ovis aries) (UniProt P05979). In words: Inhibition of microsomal COX1 at 10 uM.
In test [7] the test system is Rattus norvegicus. In words: Anti-inflammatory activity in orally dosed Wistar rat assessed as reduction of carrageenan-induced paw edema at 0.3 mg/kg, po. Format: functional.

Chain of Prostaglandin G/H synthase 1 (Ovis aries) (P05979 whole entry, looked up): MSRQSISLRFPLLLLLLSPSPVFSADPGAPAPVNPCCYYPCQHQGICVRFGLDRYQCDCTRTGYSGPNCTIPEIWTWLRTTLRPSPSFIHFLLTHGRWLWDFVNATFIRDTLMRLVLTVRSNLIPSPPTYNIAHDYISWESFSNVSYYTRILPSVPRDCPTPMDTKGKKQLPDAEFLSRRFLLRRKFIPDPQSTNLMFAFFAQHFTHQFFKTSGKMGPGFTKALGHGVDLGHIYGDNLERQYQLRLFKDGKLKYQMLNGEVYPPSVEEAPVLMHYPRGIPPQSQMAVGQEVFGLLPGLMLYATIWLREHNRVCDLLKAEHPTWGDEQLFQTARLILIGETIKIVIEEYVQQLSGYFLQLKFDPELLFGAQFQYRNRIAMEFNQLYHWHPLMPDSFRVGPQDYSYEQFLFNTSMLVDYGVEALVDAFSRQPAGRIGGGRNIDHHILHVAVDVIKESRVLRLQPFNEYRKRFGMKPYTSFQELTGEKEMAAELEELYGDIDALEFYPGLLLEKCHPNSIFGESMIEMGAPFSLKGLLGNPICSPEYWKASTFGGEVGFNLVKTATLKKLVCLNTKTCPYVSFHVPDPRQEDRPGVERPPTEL

Turning to `CCC(=O)OCc1cc(-n2nc(C(F)(F)F)cc2-c2ccc(SC)cc2)ccc1S(N)(=O)=O`, the inhibition is 40% in test [1] and 0% in test [6]. Besides, the Inhibition in the test with Rattus norvegicus [2] stood at 60%. In addition, the result with Rattus norvegicus [3], in the test on Rattus norvegicus [4] and in the test with Rattus norvegicus [5] was inactive.
On to `CCC(=O)[N-]S(=O)(=O)c1ccc(-c2c(-c3ccccc3)noc2C)cc1.[Na+]` [PARECOXIB SODIUM], for which the inhibition at 0.3 mg/kg with Rattus norvegicus [7] stood at 98%.
As to `CCC(=O)[N-]S(=O)(=O)c1ccc(-n2nc(C(F)(F)F)cc2-c2ccc3c(c2)CCC3)cc1CO.[Na+]`, the inhibition came out at 22% in test [1] and 0% in test [6]. Moreover, the Inhibition with Rattus norvegicus [2] is 52%. Further, the result in the test on Rattus norvegicus [3], in the test on Rattus norvegicus [4] and in the test on Rattus norvegicus [5] was inactive.
